Measurements published in article PMC12406203 (Journal of Medicinal Chemistry, 2025).

Tests used:
Test in all cases: KINOMEscan
Type in all cases: binding
DCAMKL1 = molecular target: T1, DCAMKL1 (Homo sapiens, UniProt O15075)
T1 construct: purchased Eurofins DiscoverX, LLC; host or cells: E. coli (T7 phage) or HEK-293
T1 sequence (O15075 1-740): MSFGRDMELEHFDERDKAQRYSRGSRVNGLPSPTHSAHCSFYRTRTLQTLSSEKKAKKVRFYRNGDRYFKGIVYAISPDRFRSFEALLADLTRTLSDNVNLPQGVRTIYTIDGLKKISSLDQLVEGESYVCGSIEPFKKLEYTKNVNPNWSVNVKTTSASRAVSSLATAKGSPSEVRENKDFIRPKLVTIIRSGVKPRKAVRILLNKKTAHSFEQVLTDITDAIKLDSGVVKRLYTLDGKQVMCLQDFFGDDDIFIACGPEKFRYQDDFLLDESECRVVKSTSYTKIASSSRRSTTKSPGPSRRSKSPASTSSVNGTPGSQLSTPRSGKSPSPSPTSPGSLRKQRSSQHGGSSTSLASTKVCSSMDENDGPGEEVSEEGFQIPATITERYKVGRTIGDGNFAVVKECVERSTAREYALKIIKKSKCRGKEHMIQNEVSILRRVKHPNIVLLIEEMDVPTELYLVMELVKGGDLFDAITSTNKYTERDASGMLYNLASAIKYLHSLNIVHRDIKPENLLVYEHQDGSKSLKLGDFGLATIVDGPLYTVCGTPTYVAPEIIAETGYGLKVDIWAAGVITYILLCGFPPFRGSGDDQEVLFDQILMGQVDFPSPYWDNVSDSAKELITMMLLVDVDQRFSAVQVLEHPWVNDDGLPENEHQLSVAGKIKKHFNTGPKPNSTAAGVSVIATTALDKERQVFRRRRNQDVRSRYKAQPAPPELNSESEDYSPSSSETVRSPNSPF

FGFR3 = molecular target: T2, FGFR3 (Homo sapiens, UniProt P22607)
T2 construct: purchased Eurofins DiscoverX, LLC; host or cells: E. coli (T7 phage) or HEK-293

TGFBR1 = molecular target: T3, TGFBR1 (Homo sapiens, UniProt P36897)
T3 construct: purchased Eurofins DiscoverX, LLC; host or cells: E. coli BL21-derived host (T7 phage) or HEK-293
T3 sequence (P36897 34-503): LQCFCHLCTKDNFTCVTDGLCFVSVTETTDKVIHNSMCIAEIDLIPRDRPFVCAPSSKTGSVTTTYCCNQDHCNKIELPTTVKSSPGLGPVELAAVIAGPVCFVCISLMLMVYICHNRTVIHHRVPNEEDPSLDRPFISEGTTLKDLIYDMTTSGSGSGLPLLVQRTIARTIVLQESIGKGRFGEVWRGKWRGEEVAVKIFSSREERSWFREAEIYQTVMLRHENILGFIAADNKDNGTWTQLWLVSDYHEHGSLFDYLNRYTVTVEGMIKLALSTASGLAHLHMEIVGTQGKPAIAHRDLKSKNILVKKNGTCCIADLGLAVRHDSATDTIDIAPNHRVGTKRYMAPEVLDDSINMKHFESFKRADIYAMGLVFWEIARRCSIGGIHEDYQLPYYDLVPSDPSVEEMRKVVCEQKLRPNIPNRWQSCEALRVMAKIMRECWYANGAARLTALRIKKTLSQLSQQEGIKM

TIE2 = molecular target: T4, TIE2 (Homo sapiens, UniProt Q02763)
T4 construct: purchased Eurofins DiscoverX, LLC; host or cells: E. coli BL21-derived host (T7 phage) or HEK-293

p38δ = molecular target: T5, p38δ (Homo sapiens, UniProt O15264)
T5 construct: purchased Eurofins DiscoverX, LLC; host or cells: E. coli (BL21-derived, T7 phage) or HEK-293
T5 sequence (O15264 1-365): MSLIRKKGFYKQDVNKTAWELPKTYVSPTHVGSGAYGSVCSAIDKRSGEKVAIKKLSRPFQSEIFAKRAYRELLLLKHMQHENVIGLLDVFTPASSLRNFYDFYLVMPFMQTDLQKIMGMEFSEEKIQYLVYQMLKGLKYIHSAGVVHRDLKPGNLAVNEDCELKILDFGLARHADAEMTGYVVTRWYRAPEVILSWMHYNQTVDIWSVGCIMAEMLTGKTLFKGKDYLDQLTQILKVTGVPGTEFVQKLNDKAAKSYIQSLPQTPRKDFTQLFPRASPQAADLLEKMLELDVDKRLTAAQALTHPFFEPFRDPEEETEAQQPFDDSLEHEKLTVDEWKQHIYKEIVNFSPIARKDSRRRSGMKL

T2 sequence (P22607 23-806): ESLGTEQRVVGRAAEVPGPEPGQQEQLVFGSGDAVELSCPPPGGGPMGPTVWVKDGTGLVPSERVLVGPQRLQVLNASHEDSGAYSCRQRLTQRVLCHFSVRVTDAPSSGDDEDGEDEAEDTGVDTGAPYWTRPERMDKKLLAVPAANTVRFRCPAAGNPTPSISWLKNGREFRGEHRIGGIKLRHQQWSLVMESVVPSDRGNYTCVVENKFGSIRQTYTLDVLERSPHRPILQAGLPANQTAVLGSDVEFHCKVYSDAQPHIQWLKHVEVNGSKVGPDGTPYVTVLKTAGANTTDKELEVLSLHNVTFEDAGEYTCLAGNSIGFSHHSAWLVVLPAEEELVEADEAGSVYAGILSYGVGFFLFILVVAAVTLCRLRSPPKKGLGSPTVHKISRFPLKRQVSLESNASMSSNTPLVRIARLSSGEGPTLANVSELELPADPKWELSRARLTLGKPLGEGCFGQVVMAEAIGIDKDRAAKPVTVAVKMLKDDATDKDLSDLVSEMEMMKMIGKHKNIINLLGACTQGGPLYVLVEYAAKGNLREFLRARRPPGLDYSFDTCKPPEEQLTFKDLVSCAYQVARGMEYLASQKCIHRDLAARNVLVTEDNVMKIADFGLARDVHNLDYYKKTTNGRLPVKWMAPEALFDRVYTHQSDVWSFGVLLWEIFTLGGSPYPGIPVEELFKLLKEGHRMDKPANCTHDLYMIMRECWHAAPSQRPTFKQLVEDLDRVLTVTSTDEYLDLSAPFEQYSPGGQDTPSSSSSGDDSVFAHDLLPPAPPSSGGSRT
T4 sequence (Q02763 23-1124): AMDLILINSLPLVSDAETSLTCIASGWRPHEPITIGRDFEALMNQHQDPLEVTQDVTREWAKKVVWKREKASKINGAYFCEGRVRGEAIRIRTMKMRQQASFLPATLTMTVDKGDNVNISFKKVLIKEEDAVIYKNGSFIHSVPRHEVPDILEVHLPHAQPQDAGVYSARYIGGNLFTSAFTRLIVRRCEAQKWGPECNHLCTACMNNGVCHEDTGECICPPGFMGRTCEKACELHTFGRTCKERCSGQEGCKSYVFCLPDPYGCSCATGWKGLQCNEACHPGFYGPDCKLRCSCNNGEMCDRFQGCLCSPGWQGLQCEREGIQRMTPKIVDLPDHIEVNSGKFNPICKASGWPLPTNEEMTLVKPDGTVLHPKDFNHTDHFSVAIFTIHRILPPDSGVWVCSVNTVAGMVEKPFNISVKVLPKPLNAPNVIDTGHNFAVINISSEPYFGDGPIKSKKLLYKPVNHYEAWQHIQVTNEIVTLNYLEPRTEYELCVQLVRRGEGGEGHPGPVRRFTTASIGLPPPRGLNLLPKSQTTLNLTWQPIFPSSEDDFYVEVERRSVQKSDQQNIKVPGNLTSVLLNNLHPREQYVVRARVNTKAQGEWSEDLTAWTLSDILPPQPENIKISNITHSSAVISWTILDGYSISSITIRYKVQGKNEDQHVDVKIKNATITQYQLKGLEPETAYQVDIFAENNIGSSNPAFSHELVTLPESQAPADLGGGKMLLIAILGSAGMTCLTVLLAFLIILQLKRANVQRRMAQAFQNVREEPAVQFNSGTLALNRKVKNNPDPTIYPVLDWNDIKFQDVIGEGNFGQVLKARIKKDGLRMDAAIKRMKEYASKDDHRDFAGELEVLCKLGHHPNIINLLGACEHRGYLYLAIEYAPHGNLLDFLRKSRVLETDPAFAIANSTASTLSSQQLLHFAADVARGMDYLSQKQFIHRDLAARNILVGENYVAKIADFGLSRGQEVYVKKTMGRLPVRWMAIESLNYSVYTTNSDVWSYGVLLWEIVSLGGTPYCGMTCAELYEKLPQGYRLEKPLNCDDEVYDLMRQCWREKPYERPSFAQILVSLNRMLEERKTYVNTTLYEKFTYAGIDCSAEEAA

Row | Structure (SMILES) | RA @ 1000nM (DCAMKL1) [%] | RA @ 10000nM (DCAMKL1) [%] | RA @ 1000nM (FGFR3) [%] | RA @ 10000nM (FGFR3) [%] | RA @ 1000nM (TGFBR1) [%] | RA @ 10000nM (TGFBR1) [%] | RA @ 1000nM (TIE2) [%] | RA @ 10000nM (TIE2) [%] | RA @ 1000nM (p38δ) [%] | RA @ 10000nM (p38δ) [%]
1 | CC(C)Cn1ncc2cc(Cc3ccc(F)cc3F)c(C(=O)NCCN(C)C)cc21 [Compound 94, 5-(2,4-Difluorobenzyl)-N-(2-(dimethylamino)ethyl)-1-isobutyl-1H-indazole-6-carboxamide] | 100 | 100 | 100 | 100 | 100 | 100 | 100 | 100 | 97 | 100
2 | CN(C)CCNC(=O)c1cc2c(cnn2CC2CCCCC2)cc1Cc1ccc(F)cc1F [Compound 95, 1-(Cyclohexylmethyl)-5-(2,4-difluorobenzyl)-N-(2-(dimethylamino)ethyl)-1H-indazole-6-carboxamide] | 100 | 100 | 100 | 92 | 100 | 100 | 90 | 100 | 100 | 100
